Laboratory results from the NIST ThermoML archive (doi:10.1016/j.jct.2018.02.021).
“And” between values parts separate entries of the source, which are not always exact repeats. Equal values may be shown once.

Assay: xn = mol fraction of the nth substance listed
Conditions: Gas, Buoyancy - hydrostatic balance with magnetic suspension - two sinkers

CC [ethane] + O=C=O
Conditions	mass density
273.15 K, 531.09 kPa, x1 = 0.2003	10.008 kg/m3
273.15 K, 531.52 kPa, x1 = 0.2003	10.0165 kg/m3
273.15 K, 531.92 kPa, x1 = 0.2003	10.0243 kg/m3
273.15 K, 534.39 kPa, x1 = 0.2003	10.0711 kg/m3
273.15 K, 534.79 kPa, x1 = 0.2003	10.0789 kg/m3
273.15 K, 535.19 kPa, x1 = 0.2003	10.087 kg/m3
273.15 K, 535.63 kPa, x1 = 0.2003	10.0955 kg/m3
273.15 K, 544.52 kPa, x1 = 0.2003	10.2735 kg/m3
273.15 K, 544.86 kPa, x1 = 0.2003	10.2801 kg/m3
273.15 K, 548.14 kPa, x1 = 0.4995	9.33133 kg/m3
273.15 K, 551.38 kPa, x1 = 0.05023	10.9267 kg/m3
273.15 K, 1023.8 kPa, x1 = 0.2003	20.0462 kg/m3
273.15 K, 1024.6 kPa, x1 = 0.2003	20.0627 kg/m3
273.15 K, 1025.4 kPa, x1 = 0.2003	20.0779 kg/m3
273.15 K, 1026.6 kPa, x1 = 0.2003	20.1024 kg/m3
273.15 K, 1027 kPa, x1 = 0.2003	20.1108 kg/m3
273.15 K, 1027.6 kPa, x1 = 0.2003	20.1219 kg/m3
273.15 K, 1037.4 kPa, x1 = 0.2003	20.3384 kg/m3
273.15 K, 1037.8 kPa, x1 = 0.2003	20.347 kg/m3
273.15 K, 1051.5 kPa, x1 = 0.4995	18.6959 kg/m3
273.15 K, 1075.8 kPa, x1 = 0.05023	22.195 kg/m3
273.15 K, 2035.1 kPa, x1 = 0.2003	43.7258 kg/m3
273.15 K, 2035.5 kPa, x1 = 0.2003	43.7371 kg/m3
273.15 K, 2050.8 kPa, x1 = 0.4995	40.4917 kg/m3
273.15 K, 2062 kPa, x1 = 0.05023	46.5645 kg/m3
273.15 K, 2554 kPa, x1 = 0.4995	53.9302 kg/m3
273.15 K, 2562.2 kPa, x1 = 0.05023	61.2253 kg/m3
273.15 K, 3037.3 kPa, x1 = 0.2003	73.9637 kg/m3
273.15 K, 3037.9 kPa, x1 = 0.2003	73.9838 kg/m3
273.15 K, 3053.1 kPa, x1 = 0.05023	77.9966 kg/m3
273.15 K, 3054.4 kPa, x1 = 0.4995	70.1143 kg/m3
273.15 K, 3480.6 kPa, x1 = 0.2003	91.4391 kg/m3 and 91.4331 kg/m3
273.15 K, 3488.2 kPa, x1 = 0.2003	91.7868 kg/m3
273.15 K, 3488.7 kPa, x1 = 0.2003	91.8117 kg/m3
273.15 K, 3489.4 kPa, x1 = 0.2003	91.84 kg/m3
273.15 K, 3507.2 kPa, x1 = 0.2003	92.6352 kg/m3 and 92.638 kg/m3
283.15 K, 518.17 kPa, x1 = 0.2003	9.36982 kg/m3
283.15 K, 519.18 kPa, x1 = 0.05023	9.86023 kg/m3
283.15 K, 538.66 kPa, x1 = 0.4995	8.79999 kg/m3
283.15 K, 1030 kPa, x1 = 0.05023	20.2371 kg/m3
283.15 K, 1031.7 kPa, x1 = 0.4995	17.4887 kg/m3
283.15 K, 1041.5 kPa, x1 = 0.2003	19.5141 kg/m3
283.15 K, 2018.1 kPa, x1 = 0.4995	37.3012 kg/m3
283.15 K, 2025.9 kPa, x1 = 0.05023	42.9555 kg/m3
283.15 K, 2038.1 kPa, x1 = 0.2003	41.2701 kg/m3
283.15 K, 3029.9 kPa, x1 = 0.05023	70.7861 kg/m3
283.15 K, 3032.8 kPa, x1 = 0.4995	62.9635 kg/m3
283.15 K, 3042.8 kPa, x1 = 0.2003	68.0188 kg/m3
283.15 K, 3546.2 kPa, x1 = 0.05023	88.2259 kg/m3
283.15 K, 3550.3 kPa, x1 = 0.4995	79.7057 kg/m3
283.15 K, 4013.1 kPa, x1 = 0.4995	98.6426 kg/m3
283.15 K, 4045.7 kPa, x1 = 0.05023	108.543 kg/m3
283.15 K, 4069.8 kPa, x1 = 0.2003	104.912 kg/m3
283.15 K, 4501.8 kPa, x1 = 0.2003	126.607 kg/m3
283.15 K, 4602.7 kPa, x1 = 0.2003	132.714 kg/m3
283.15 K, 4730.9 kPa, x1 = 0.2003	141.359 kg/m3
283.15 K, 4821.7 kPa, x1 = 0.2003	148.288 kg/m3
293.15 K, 519.57 kPa, x1 = 0.2003	9.04307 kg/m3
293.15 K, 525.66 kPa, x1 = 0.4995	8.25163 kg/m3
293.15 K, 1026.1 kPa, x1 = 0.4995	16.6496 kg/m3
293.15 K, 1034.3 kPa, x1 = 0.2003	18.5618 kg/m3
293.15 K, 2026.9 kPa, x1 = 0.2003	38.8656 kg/m3
293.15 K, 2045.8 kPa, x1 = 0.4995	35.8484 kg/m3
293.15 K, 3032.6 kPa, x1 = 0.4995	58.2406 kg/m3
293.15 K, 3042.1 kPa, x1 = 0.2003	63.2873 kg/m3
293.15 K, 4051.5 kPa, x1 = 0.4995	88.2376 kg/m3
293.15 K, 4055.4 kPa, x1 = 0.2003	93.5899 kg/m3
293.15 K, 4555.2 kPa, x1 = 0.4995	107.86 kg/m3
293.15 K, 5019.3 kPa, x1 = 0.4995	131.598 kg/m3
293.15 K, 5020.8 kPa, x1 = 0.2003	133.141 kg/m3
308.15 K, 542.53 kPa, x1 = 0.4995	8.06912 kg/m3
308.15 K, 1040.9 kPa, x1 = 0.4995	15.9143 kg/m3
308.15 K, 2034.5 kPa, x1 = 0.4995	33.0477 kg/m3
308.15 K, 3050.6 kPa, x1 = 0.4995	53.2563 kg/m3
308.15 K, 4038.3 kPa, x1 = 0.4995	76.6788 kg/m3
308.15 K, 4551.5 kPa, x1 = 0.4995	90.9786 kg/m3
308.15 K, 5013.9 kPa, x1 = 0.4995	105.639 kg/m3
323.15 K, 524.46 kPa, x1 = 0.05023	8.6271 kg/m3
323.15 K, 543.73 kPa, x1 = 0.4995	7.68033 kg/m3
323.15 K, 1024.4 kPa, x1 = 0.4995	14.7964 kg/m3
323.15 K, 1024.9 kPa, x1 = 0.05023	17.2074 kg/m3
323.15 K, 2039.4 kPa, x1 = 0.05023	35.7934 kg/m3
323.15 K, 2040.2 kPa, x1 = 0.4995	31.0101 kg/m3
323.15 K, 3036.4 kPa, x1 = 0.4995	48.806 kg/m3
323.15 K, 3038.7 kPa, x1 = 0.05023	55.972 kg/m3
323.15 K, 4027.4 kPa, x1 = 0.4995	68.9564 kg/m3
323.15 K, 4049.9 kPa, x1 = 0.05023	78.8065 kg/m3
323.15 K, 5024.6 kPa, x1 = 0.4995	92.5708 kg/m3
323.15 K, 5061.4 kPa, x1 = 0.05023	104.85 kg/m3
323.15 K, 5982.2 kPa, x1 = 0.4995	119.675 kg/m3
323.15 K, 6013.8 kPa, x1 = 0.05023	133.393 kg/m3
